Assay results published in patent US9938258B2 (Karyopharm Therapeutics Inc., priority 2012, dated 2018).

What was measured:
[1] = system: Z-138 cells; assay: Cell cycle arrest (BrdU / 7-AAD flow cytometry); format: cell-based; details: 1 μM for 1, 2 and 3 days
Description: Z-138 cells (mantle cell lymphoma) were plated at a density of 1×10^6 cells/well and treated with no drug (DMSO control) or with 1 μM Compound 123 for 1, 2, and 3 days in culture. For each time point, cells were treated with 10 μM BrdU for 2 hours, then collected by centrifugation. Cells were subsequently washed, fixed, and then stained for BrdU and total DNA (7-AAD). BrdU incorporation and cell cycle analysis were analyzed by flow cytometry at the Dana Farber Cancer Institute on a BD Fortessa Analyzer. Data was then analyzed using FCS Express 4 software.
FIGS. 1A, 1B, 1C and 1D are single-cell scatter plots and show BrdU versus 7-AAD for Z138 cells treated with no drug (FIG. 1A) or treated with 1 μM Compound 123 for 1 day (FIG. 1B), 2 days (FIG. 1C), or 3 days (FIG. 1D). Graphs showing cell count versus 7-AAD intensities are depicted below their corresponding scatter plots.

[2] = system: Z-138 mantle cell lymphoma cancer xenograft; assay: Z-138 mouse xenograft model; format: in vivo; details: QDx5/week for 4 weeks, SCID mice with Z-138 tumors; for tumor growth (mean tumor volume): versus cyclophosphamide 80 mg/kg Days 1-3
Description: The oncological impact of selected substituted 2,3-dihydrobenzofuranyl compounds was tested using a Z-138 mantle cell lymphoma cancer xenograft model in SCID mice. SCID Mice were inoculated s.c. in both flanks with 5×10^6 Z-138 cells. When the tumors reached a mean size of between 100 and 200 mm^3, mice were randomly and prospectively divided. Tumor-bearing mice were treated with vehicle, cyclophosphamide (positive control) or Compound 123 on M-F (QDx5/week) for 4 weeks. Compound 123 was administered orally (PO) at initial doses of 30 and 100 mg/kg five times a week. Cyclophosphamide was given as a positive control at 80 mg/kg on Days 1-3. Animals' weights and conditions were recorded daily, and tumors were measured on Mondays-Wednesdays-Fridays.

[3] = system: 3T3 cells; assay: MTT cell proliferation assay, 3T3; format: cell-based, mouse; details: Mus musculus, NIH3T3, 3T3 cells; eight concentrations 1 nM to 30 μM; incubation approximately 64-72 hours; read-out: MTT Assay IC50, 3T3
How it was run: (§1)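 Cells were seeded at 5,000-10,000 per well, left to attach overnight, then exposed to eight compound concentrations from 1 nM to 30 μM. After about 4 h with MTT, solubilized formazan was read at 490 nm and percent inhibition versus negative control was calculated.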

[4] = system: Z138 cells; assay: MTT cell proliferation assay, Z138; format: cell-based; details: Homo sapiens, Z-138, Z138 cells; eight concentrations 1 nM to 30 μM; incubation approximately 64-72 hours; read-out: MTT Assay IC50, Z138
How it was run: as §1

[5] = system: MS751 cells; assay: MTT cell proliferation assay, MS751; format: cell-based, human; details: Homo sapiens, MS751, MS751 cells; eight concentrations 1 nM to 30 μM; incubation approximately 64-72 hours; read-out: MTT Assay IC50, MS751
How it was run: as §1

CC(=O)c1ccc(-c2cc(Cl)c3c(c2)CC(CNC(=O)/C=C/c2cccnc2)O3)s1 (single isomer, unassigned) [Compound 123, (E)-N-((5-(5-acetylthiophen-2-yl)-7-chloro-2,3-dihydrobenzofuran-2-yl)methyl)-3-(pyridin-3-yl)acrylamide]
G1 [1]: no change | G2/M [1]: increased | S phase [1]: significant decrease | sub-G1 fraction [1]: small increase | tumor growth (mean tumor volume) ([2]; 30 mg/kg PO): inhibited tumor growth with an efficacy better than that of cyclophosphamide | tumor growth (mean tumor volume) ([2]; 100 mg/kg PO): inhibited tumor growth with an efficacy similar to cyclophosphamide | tolerability (mean percent weight change) ([2]; 30 and 100 mg/kg PO): tolerated at both doses | IC50 [3]: 100 to 5000 nM | IC50 [4]: < 100 nM | IC50 [5]: < 100 nM
